Test results: patent US8846739B2, “TGR5 agonists” (Exelixis Patent Company LLC, priority 2009, dated 2014)
Counter-ions that a name gives are not always drawn.

Columns and labels:
human TGR5 (h-TGR5) = biological target: T1, human TGR5 (h-TGR5) (Homo sapiens, UniProt Q8TDU6); assay: TGR5/CRE-Luciferase Assay; format: cell-based; settings: HEK 293 hTGR5/CRE-Luc cells, 6 hours incubation, read-out: CRE-Luc Agonist (EC50)
T1 sequence (Q8TDU6 1-330): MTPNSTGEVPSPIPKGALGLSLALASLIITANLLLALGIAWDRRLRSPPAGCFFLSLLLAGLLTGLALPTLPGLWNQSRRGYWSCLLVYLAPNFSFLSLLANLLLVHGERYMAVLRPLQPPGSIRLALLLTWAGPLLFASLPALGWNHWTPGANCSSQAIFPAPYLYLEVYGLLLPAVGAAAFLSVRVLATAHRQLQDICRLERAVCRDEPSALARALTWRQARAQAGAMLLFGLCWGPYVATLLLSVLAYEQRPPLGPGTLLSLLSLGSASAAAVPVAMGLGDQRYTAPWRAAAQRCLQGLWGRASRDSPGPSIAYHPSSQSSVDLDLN
Protocol: HEK 293 cells stably expressing human TGR5 (h-TGR5) or mouse TGR5 (m-TGR5) were generated from HEK 293 CRE-Luciferase cells. The day before the assay, HEK 293 hTGR5/CRE-Luc cells were plated in DMEM in a 384 well assay plate at a density of 25 k cells/45 μL per well and grown for 18-20 hours. Compounds were serially diluted in DMEM containing 5% DMSO and 5 µL of compound or media alone was transferred to each well and plates were incubated for 6 hours. Following incubation, 30 μL of lysis/luciferase buffer was added to each well. The luciferase activity was then measured on the EnVision™ plate reader and the dose response data was analyzed using ActivityBase.
(§1) In the following tables, ECso values determined according to the TGR5 cAMP Assay are noted (cAMP); EC50 values determined according to the TGR5/CRE-Luciferiase Assay are noted (CRE-Luc).

h-TGR5 = biological target: T2, h-TGR5 (Homo sapiens, UniProt Q8TDU6); assay: TGR5 cAMP Assay using Cisbio cAMP Dynamic 2 htrf assay kit; format: cell-based; settings: hTGR5CRE-luc HEK 293 cells
T2 sequence (Q8TDU6 1-330): T1 sequence (Q8TDU6 1-330)
Protocol: Compounds were diluted in DPBS with 5% DMSO (8-point serial dilution by half logs) in a 96-well plate and 1 μL was transferred to a 384-well assay plate in quadruplicate. The d2-cAMP and anti-cAMP Ab-cryptate stock solution were prepared as per the instructions in the Cisbio™ (Bedford, Mass.) kit. Cells (hTGR5CRE-luc HEK 293 and mTGR5CRE-luc HEK 293) were harvested using cell dissociation buffer and resuspended in DPBS. Cells were adjusted to 0.44×10^6 cells/ml followed by addition of IBMX to a final concentration of 0.5 mM. The cells were then mixed with d2-cAMP solution (7.1 mL cells+100 ul d2-cAMP) and 4000 cells (9 μL) were transferred to each well of the 384-well assay plate. Cells without d2-cAMP were added to eight wells as a negative control. The plate was covered and incubated at room temp for 30 min. Then 10 μL of Ab-cryptate solution was added to each well of the assay plate and incubated for 1 hr. The plate was read on an EnVision™ plate reader (Perkin-Elmer, Waltham, Mass.) and the DeltaF value was calculated as per the instructions in the Cisbio™ kit.
as §1

Structure (SMILES) | EC50 (human TGR5 (h-TGR5)) | EC50 (h-TGR5)
COc1cc(-n2c(C(C)(C)c3ccc4onc(N)c4c3)cnc2SCc2c(F)cc(C(=O)NCC[N+](C)(C)C)cc2Cl)ccc1F [Example 1b, 2-[({4-[({5-[1-(3-amino-1,2-benzisoxazol-5-yl)-1-methylethyl]-1-[4-fluoro-3-(methyloxy)phenyl]-1H-imidazol-2-yl}thio)methyl]-3-chloro-5-fluorophenyl}carbonyl)amino]-N,N,N-trimethylethanaminium] | < 100 nM | < 100 nM
COc1cc(C(C)(C)c2cnc(SCc3c(F)cc(S(=O)(=O)N4CCC([N+](C)(C)C)CC4)cc3F)n2-c2ccc(F)cc2)ccc1Cl [Compound 11c, 1-{[4-({[5-{1-[4-chloro-3-(methyloxy)phenyl]-1-methylethyl}-1-(4-fluorophenyl)-1H-imidazol-2-yl]thio}methyl)-3,5-difluorophenyl]sulfonyl}-N,N,N-trimethylpiperidin-4-aminium] | < 100 nM | < 100 nM
COc1cc(C(C)(C)c2cnc(SCc3cc(S(=O)(=O)NCCC[N+](C)(C)C)c(Cl)cc3F)n2-c2ccc(F)cc2)ccc1Cl [Example 6q, 3-({[2-chloro-5-({[5-{1-[4-chloro-3-(methyloxy)phenyl]-1-methylethyl}-1-(4-fluorophenyl)-1H-imidazol-2-yl]thio}methyl)-4-fluorophenyl]sulfonyl}amino)-N,N,N-trimethylpropan-1-aminium] | < 100 nM | < 100 nM
COc1cc(C(C)(C)c2cnc(CCc3c(F)cc(S(=O)(=O)N(C)[C@@H](CCC[N+](C)(C)C)C(=O)O)cc3F)n2-c2ccc(F)cc2)ccc1Cl [Compound 14i, (S)-4-carboxy-4-(4-(2-(5-(2-(4-chloro-3-methoxyphenyl)propan-2-yl)-1-(4-fluorophenyl)-1H-imidazol-2-yl)ethyl)-3,5-difluoro-N-methylphenylsulfonamido)-N,N,N-trimethylbutan-1-aminium chloride] | < 100 nM | < 100 nM
COc1cc(C(C)(C)c2cnc(SCc3c(F)cc(S(=O)(=O)N(CCC[N+](C)(C)C)[C@H](C)C(=O)O)cc3Cl)n2-c2ccc(F)cc2)cc(F)c1F [Compound 14c, (R)-3-(N-(1-carboxyethyl)-3-chloro-4-((5-(2-(3,4-difluoro-5-methoxyphenyl)propan-2-yl)-1-(4-fluorophenyl)-1H-imidazol-2-ylthio)methyl)-5-fluorophenylsulfonamido)-N,N,N-trimethylpropan-1-aminium 2,2,2-trifluoroacetate] | < 100 nM | < 100 nM
COc1cc(C(C)(C)c2cnc(SCc3c(F)cc(C(=O)NCC[N+]4(C)CCOCC4)cc3Cl)n2-c2ccc(F)cc2)ccc1Cl [Example 2j, 4-[2-({[3-chloro-4-({[5-{1-[4-chloro-3-(methyloxy)phenyl]-1-methylethyl}-1-(4-fluorophenyl)-1H-imidazol-2-yl]thio}methyl)-5-fluorophenyl]carbonyl}amino)ethyl]-4-methylmorpholin-4-ium] | 1000 to 10000 nM | 1000 to 10000 nM
COc1cc(C(C)(C)c2cnc(SCc3c(F)cc(S(=O)(=O)N4CC([N+](C)(C)C)C4)cc3Cl)n2-c2ccc(F)cc2)ccc1Cl [Compound 11n, 1-{[3-chloro-4-({[5-{1-[4-chloro-3-(methyloxy)phenyl]-1-methylethyl}-1-(4-fluorophenyl)-1H-imidazol-2-yl]thio}methyl)-5-fluorophenyl]sulfonyl}-N,N,N-trimethylazetidin-3-aminium] | < 100 nM | < 100 nM
COc1cc(C(C)(C)c2cnc(CCc3c(F)cc(C(=O)NCC[N+](C)(C)C)cc3Cl)n2-c2ccc(F)cc2)ccc1Cl [Example 1f, 2-{[(3-chloro-4-{2-[5-{1-[4-chloro-3-(methyloxy)phenyl]-1-methylethyl}-1-(4-fluorophenyl)-1H-imidazol-2-yl]ethyl}-5-fluorophenyl)carbonyl]amino}-N,N,N-trimethylethanaminium] | < 100 nM | < 100 nM
COc1cc(C(C)(C)c2cnc(SCc3c(F)cc(S(=O)(=O)N(CCC[N+](C)(C)C)CC(=O)O)cc3Cl)n2-c2ccc(F)cc2)ccc1F [Compound 14n, 3-[(carboxymethyl){[3-chloro-5-fluoro-4-({[5-{1-[4-fluoro-3-(methyloxy)phenyl]-1-methylethyl}-1-(4-fluorophenyl)-1H-imidazol-2-yl]thio}methyl)phenyl]sulfonyl}amino]-N,N,N-trimethylpropan-1-aminium] | < 100 nM | < 100 nM
COc1cc(-n2c(C(C)(C)c3ccc(Cl)c(Cl)c3)cnc2SCc2c(F)cc(C(=O)N[C@H]3CC[N+](C)(C)C3)cc2Cl)ccc1F [Example 2r, (3S)-3-[({3-chloro-4-[({5-[1-(3,4-dichlorophenyl)-1-methylethyl]-1-[4-fluoro-3-(methyloxy)phenyl]-1H-imidazol-2-yl}thio)methyl]-5-fluorophenyl}carbonyl)amino]-1,1-dimethylpyrrolidinium] | < 100 nM | < 100 nM
COc1cc(C(C)(C)c2cnc(SCc3c(F)cc(S(=O)(=O)N4CC[N+](C)(C)CC4)cc3Cl)n2-c2ccc(F)cc2)ccc1Cl [Compound 11k, 4-{[3-chloro-4-({[5-{1-[4-chloro-3-(methyloxy)phenyl]-1-methylethyl}-1-(4-fluorophenyl)-1H-imidazol-2-yl]thio}methyl)-5-fluorophenyl]sulfonyl}-1,1-dimethylpiperazin-1-ium] | < 100 nM | < 100 nM
COc1cc(C(C)(C)c2cnc(SCc3c(F)cc(S(=O)(=O)N4CCC(C[N+](C)(C)C)(C(=O)O)CC4)cc3F)n2-c2ccc(F)cc2)ccc1Cl [Compound 11x, (4-carboxy-1-{[4-({[5-{1-[4-chloro-3-(methyloxy)phenyl]-1-methylethyl}-1-(4-fluorophenyl)-1H-imidazol-2-yl]thio}methyl)-3,5-difluorophenyl]sulfonyl}piperidin-4-yl)-N,N,N-trimethylmethanaminium] | < 100 nM | < 100 nM
COc1cc(-n2c(C(C)(C)c3ccc(S(N)(=O)=O)c(Cl)c3)cnc2SCc2c(F)cc(C(=O)NCC[N+](C)(C)C)cc2Cl)ccc1F [Example 1a, 2-{[(4-{[(5-{1-[4-(aminosulfonyl)-3-chlorophenyl]-1-methylethyl}-1-[4-fluoro-3-(methyloxy)phenyl]-1H-imidazol-2-yl)thio]methyl}-3-chloro-5-fluorophenyl)carbonyl]amino}-N,N,N-trimethylethanaminium] | < 100 nM | < 100 nM
COc1cc(C(C)(C)c2cnc(SCc3c(F)cc(S(=O)(=O)N(C)[C@@H](CCCC[N+](C)(C)C)C(=O)O)cc3Cl)n2-c2ccc(F)cc2)ccc1Cl [Compound 17f, (S)-5-carboxy-5-(3-chloro-4-((5-(2-(4-chloro-3-methoxyphenyl)propan-2-yl)-1-(4-fluorophenyl)-1H-imidazol-2-ylthio)methyl)-5-fluoro-N-methylphenylsulfonamido)-N,N,N-trimethylpentan-1-aminium 2,2,2-trifluoroacetate] | < 100 nM | < 100 nM
COc1cc(C(C)(C)c2cnc(SCc3c(F)cc(C#CC[N+](C)(C)C)cc3F)n2-c2ccc(F)cc2)ccc1Cl [Compound 18, 3-(4-((5-(2-(4-Chloro-3-methoxyphenyl)propan-2-yl)-1-(4-fluorophenyl)-1H-imidazol-2-ylthio)methyl)-3,5-difluorophenyl)-N,N,N-trimethylprop-2-yn-1-aminium 4-methylbenzenesulfonate] | < 100 nM | < 100 nM
COc1cc(C(C)(C)c2cnc(SCc3c(F)cc(C(=O)NCC[N+]45CCN(CC4)CC5)cc3Cl)n2-c2ccc(F)cc2)ccc1Cl [Example 2, 1-(2-(3-chloro-4-((5-(2-(4-chloro-3-methoxyphenyl)propan-2-yl)-1-(4-fluorophenyl)-1H-imidazol-2-ylthio)methyl)-5-fluorobenzamido)ethyl)-4-aza-1-azoniabicyclo-[2.2.2]octane chloride hydrochloride] | < 100 nM | < 100 nM
COc1cc(C(C)(C)c2cnc(SCc3c(F)cc(S(=O)(=O)N(CCC[N+](C)(C)C)CC(=O)O)cc3F)n2-c2ccc(F)cc2)ccc1Cl [Example 12] | < 100 nM | < 100 nM
